Reference: US7855205B2, “Pyrimidinyl substituted fused-pyrrolyl compounds useful in treating kinase disorders” (Janssen Pharmaceutica NV, priority 2004, dated 2010)

Legend:
CDK1:Cyclin-B = target: T1, CDK1:Cyclin-B (Homo sapiens, UniProt P06493); assay: CDK1 Screening Assay; type: biochemical; conditions: 33P-γ-ATP incorporation, 10 μM ATP
T1 construct: purchased New England Biolabs, Beverly, Mass; 6020; host or cells: insect cells
How it was run: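 Human CDK1/cyclin B co-expressed in insect cells (30 ng/well) in 50 mM Tris pH 8, 10 mM MgCl2, with 10 μM ATP, 33P-γ-ATP and 0.025 μM biotinylated histone H1 peptide (reaction-mix levels); 1% DMSO final. 1 h at 30° C. 33P incorporation into streptavidin-captured peptide by scintillation counting.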

VEGF-R2 = target: T2, VEGF-R2 (Rattus norvegicus, UniProt O08775); assay: VEGF-R2 Screening Assay; type: biochemical; conditions: 33P-γ-ATP incorporation, 10 μM ATP
T2 construct: polyhistidine (N)
How it was run: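 The N-terminally His-tagged rat VEGF-R2 kinase domain (aa 786-1343), diluted in 50 mM Tris-HCl pH 8.0 with 0.1% BSA, phosphorylated a biotinylated histone-H1 peptide with 33P-γ-ATP on Flashplates for 1 h at 30 °C in 1% DMSO. After washes with EDTA/PBS, immobilized 33P was counted by scintillation.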

Aurora-A = target: T3, Aurora-A (Mus musculus, UniProt P97477); assay: Aurora-A Screening Assay; type: biochemical, murine; conditions: 33P-γ-ATP incorporation, 10 μM ATP
T3 construct: made in house; host or cells: sf9 insect cells
T3 sequence (P97477 1-395): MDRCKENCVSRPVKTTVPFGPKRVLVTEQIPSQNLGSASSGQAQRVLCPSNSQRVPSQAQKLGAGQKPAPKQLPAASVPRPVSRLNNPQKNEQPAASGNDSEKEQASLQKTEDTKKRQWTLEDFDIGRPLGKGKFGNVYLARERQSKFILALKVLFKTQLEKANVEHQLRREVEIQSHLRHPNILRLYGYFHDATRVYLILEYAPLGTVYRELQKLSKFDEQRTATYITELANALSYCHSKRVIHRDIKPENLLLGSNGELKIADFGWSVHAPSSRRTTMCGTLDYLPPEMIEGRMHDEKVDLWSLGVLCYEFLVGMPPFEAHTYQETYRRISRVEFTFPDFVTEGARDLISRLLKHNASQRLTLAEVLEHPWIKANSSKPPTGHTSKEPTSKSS

RET = target: T4, RET (Homo sapiens, UniProt P07949); assay: RET Kinase Screening Assay; type: biochemical; conditions: 33P-γ-ATP incorporation, 10 μM ATP
T4 construct: the RET cytoplasmic domain consisting of the last 492 amino acids of the intracellular domain of the RET tyrosine kinase; histidine tag (N); made in house; host or cells: Hi5 insect cells
T4 sequence (P07949 658-1114 limits assumed): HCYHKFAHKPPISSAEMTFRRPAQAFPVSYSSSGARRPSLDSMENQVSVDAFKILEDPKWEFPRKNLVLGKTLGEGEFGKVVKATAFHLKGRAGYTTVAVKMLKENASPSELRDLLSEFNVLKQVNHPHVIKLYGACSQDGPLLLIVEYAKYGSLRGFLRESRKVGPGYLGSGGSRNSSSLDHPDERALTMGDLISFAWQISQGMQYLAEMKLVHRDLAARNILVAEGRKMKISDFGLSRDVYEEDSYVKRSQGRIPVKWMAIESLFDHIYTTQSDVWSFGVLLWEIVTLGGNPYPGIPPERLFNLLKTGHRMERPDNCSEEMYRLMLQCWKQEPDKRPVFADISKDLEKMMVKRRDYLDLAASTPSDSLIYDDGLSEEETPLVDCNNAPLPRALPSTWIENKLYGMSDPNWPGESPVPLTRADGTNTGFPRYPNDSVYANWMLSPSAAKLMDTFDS

[1] = test system: HeLa cervical adenocarcinoma; assay: Inhibition of cell proliferation (14C-thymidine incorporation), HeLa; type: cell-based; conditions: Homo sapiens;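 further: HeLa cells in 96-well scintillating plates, compound for 24 h then 24 h more with 14C-thymidine, counting label built into new DNA against DMSO-only control wells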
HCT-116 colon carcinoma = assay: Inhibition of cell proliferation (14C-thymidine incorporation), HCT-116; type: cell-based; conditions: Homo sapiens, HCT-116, HCT116
How it was run: (§1)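 Cells (3000-8000/well) grown 24 h at 37° C, 5% CO2, then given compound in DMSO for 24 h before adding methyl 14C-thymidine (0.2 uCi/well) for a further 24 h with drug. After PBS washes, incorporation into DNA counted by scintillation.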

A375 malignant melanoma = assay: Inhibition of cell proliferation (14C-thymidine incorporation), A375; type: cell-based, human; conditions: Homo sapiens, A-375
How it was run: as §1

T2 sequence (O08775 786-1343): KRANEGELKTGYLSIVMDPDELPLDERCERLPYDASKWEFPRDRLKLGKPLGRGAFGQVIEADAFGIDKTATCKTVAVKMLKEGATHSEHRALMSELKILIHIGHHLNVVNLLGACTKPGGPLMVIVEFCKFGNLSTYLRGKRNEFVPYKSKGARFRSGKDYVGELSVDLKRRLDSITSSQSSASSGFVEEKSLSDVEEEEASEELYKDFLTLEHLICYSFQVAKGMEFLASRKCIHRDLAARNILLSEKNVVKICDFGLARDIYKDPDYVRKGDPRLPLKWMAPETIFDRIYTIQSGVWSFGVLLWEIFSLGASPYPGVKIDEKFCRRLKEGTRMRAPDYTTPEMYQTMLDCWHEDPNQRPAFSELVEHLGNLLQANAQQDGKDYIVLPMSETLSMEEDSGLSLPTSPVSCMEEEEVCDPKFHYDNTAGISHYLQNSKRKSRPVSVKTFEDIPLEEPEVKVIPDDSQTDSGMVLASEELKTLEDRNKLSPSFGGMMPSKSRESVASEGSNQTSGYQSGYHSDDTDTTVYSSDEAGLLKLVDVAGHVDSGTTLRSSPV
T1 sequence (P06493 whole entry): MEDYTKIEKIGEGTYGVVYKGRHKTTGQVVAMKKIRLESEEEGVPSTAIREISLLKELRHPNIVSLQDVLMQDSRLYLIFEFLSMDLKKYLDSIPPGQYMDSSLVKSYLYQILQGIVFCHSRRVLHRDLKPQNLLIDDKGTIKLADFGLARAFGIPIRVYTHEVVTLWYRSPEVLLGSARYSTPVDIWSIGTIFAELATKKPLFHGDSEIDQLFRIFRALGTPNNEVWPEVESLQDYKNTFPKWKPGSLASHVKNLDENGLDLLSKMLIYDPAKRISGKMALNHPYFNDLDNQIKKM
T1 sequence (P14635 whole entry partner): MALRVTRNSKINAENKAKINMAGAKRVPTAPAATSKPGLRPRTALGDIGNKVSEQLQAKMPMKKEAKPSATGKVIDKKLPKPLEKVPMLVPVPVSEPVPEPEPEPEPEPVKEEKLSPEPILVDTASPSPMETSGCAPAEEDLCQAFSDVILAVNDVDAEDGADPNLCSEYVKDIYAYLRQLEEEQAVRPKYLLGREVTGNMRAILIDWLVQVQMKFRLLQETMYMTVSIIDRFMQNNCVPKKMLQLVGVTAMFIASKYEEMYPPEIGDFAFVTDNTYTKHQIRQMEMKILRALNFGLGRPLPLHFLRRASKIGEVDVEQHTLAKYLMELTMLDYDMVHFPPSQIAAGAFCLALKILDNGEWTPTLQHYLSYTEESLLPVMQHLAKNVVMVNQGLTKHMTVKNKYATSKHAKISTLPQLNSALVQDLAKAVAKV

Compound	IC50 (CDK1:Cyclin-B) [µM]	IC50 (VEGF-R2) [µM]	IC50 (Aurora-A) [µM]	IC50 (RET) [µM]	IC50 [1] [µM]	IC50 (HCT-116 colon carcinoma) [µM]	IC50 (A375 malignant melanoma) [µM]
Clc1ccccc1Nc1nccc(-c2c[nH]c3ncccc23)n1 [Cpd 12, (2-Chloro-phenyl)-[4-(1H-pyrrolo[2,3-b]pyridin-3-yl)-pyrimidin-2-yl]-amine]	0.0092	0.878	0.287	> 10	0.14	0.16	0.1
COc1ccc(Nc2nccc(-c3c[nH]c4ncccc34)n2)cc1 [Cpd 5, (4-Methoxy-phenyl)-[4-(1H-pyrrolo[2,3-b]pyridin-3-yl)-pyrimidin-2-yl]-amine]	0.011	0.238	0.134	1.14	0.059	0.034	0.05
OCCc1ccc(Nc2nccc(-c3c[nH]c4ncccc34)n2)c(Cl)c1 [Cpd 52]	0.0087	0.322	0.0757	0.54	0.162	0.121	0.134
Cc1cc(O)ccc1Nc1nccc(-c2c[nH]c3ncccc23)n1 [Cpd 79, 3-Methyl-4-[4-(1H-pyrrolo[2,3-b]pyridin-3-yl)-pyrimidin-2-ylamino]-phenol]	0.000764	0.927	0.119	4.82	0.0059	0.00492	0.00858
CNCCc1ccc(Nc2nccc(-c3c[nH]c4ncccc34)n2)c(C)c1 [Cpd 45]	0.00095	0.583	0.317	1.54	0.00337	0.0022	0.00167
CNCCc1ccc(Nc2nccc(-c3c[nH]c4ncccc34)n2)c(Cl)c1 [Cpd 53]	0.0441	1.31	0.408	2.36	0.123	0.127	0.0913
COc1cccc(Nc2nccc(-c3c[nH]c4ncccc34)n2)c1 [Cpd 6, (3-Methoxy-phenyl)-[4-(1H-pyrrolo[2,3-b]pyridin-3-yl)-pyrimidin-2-yl]-amine]	0.119	0.14	0.1	~1	1.46	0.72	0.95
Cc1cc(CCN2CCCC2)ccc1Nc1nccc(-c2c[nH]c3ncccc23)n1 [Cpd 48]		0.875	0.86	3.52	0.00255	0.00301	0.00255
Cc1ccc(Nc2nccc(-c3c[nH]c4ncccc34)n2)cc1 [Cpd 10, [4-(1H-Pyrrolo[2,3-b]pyridin-3-yl)-pyrimidin-2-yl]-p-tolyl-amine]	0.04	0.2	0.29	~10	0.22	0.23	0.25
CN1CCN(CCc2ccc(Nc3nccc(-c4c[nH]c5ncccc45)n3)c(Cl)c2)CC1 [Cpd 55, {2-Chloro-4-[2-(4-methylpiperizin-1-yl)ethyl]phenyl}-[4-(1H-pyrrolo[2,3-b]pyridin-3-yl)-pyrimidin-2-yl]-amine]	0.0408	0.342	0.785	1.15	0.292	0.264	0.233
CCN(CC)CCc1ccc(Nc2nccc(-c3c[nH]c4ncccc34)n2)c(C)c1 [Cpd 47]	0.0014	0.882	0.972	1.4	0.00302	0.00292	0.00288
